Values quoted from earlier work, collected in patent US20060182828A1, “METHODS OF REDUCING LIPID PEROXIDATION AND ACHIEVING RELATED HEALTH BENEFITS BY THE ADMINISTRATION OF TOCOPHEROL AND SESAME LIGNANS” (priority 2005, published 2006).

Experiments:
LDL [1] = test system: LDL
[2] = test system: peroxisomal palmitoyl Co-A oxidation; conditions: in vivo
[3] = rats
mouse skin papillomas = conditions: induced with 12-0-tetradecanoylphorbol 1 acetate
[4] = test system: sterol regulatory element binding protein-1 (SREBP-1) m RNA; conditions: 0.4% sesamin diet group
LDL [5] = conditions: Cu-ascorbate induced
heart disease = conditions: supplementation with 30 IU to 100 IU
[6] = 32.4 then 64.8 mg, total of 8 weeks
[7] = hypercholesterolemic men, before

Cc1c(C)c2c(c(C)c1O)CC[C@@](C)(CCC[C@H](C)CCC[C@H](C)CCCC(C)C)O2 [alpha-tocopherol]
formation of 4-hydroxy-2-nonenal (4-HNE), of control values (LDL [1]): absolutely no effect
formation of malondialdehyde (MDA), of control values (LDL [1]): absolutely no effect

c1cc2c(cc1[C@H]1OC[C@H]3[C@@H]1CO[C@@H]3c1ccc3c(c1)OCO3)OCO2 [episesamin]
increase of peroxisomal palmitoyl Co-A oxidation rate [2]: 5.1 fold

Cc1c(O)cc2c(c1C)O[C@](C)(CCC[C@H](C)CCC[C@H](C)CCCC(C)C)CC2 [gamma-tocopherol]
gamma tocopherol level in serum ([3]; serum): 3 micromoles per liter
gamma tocopherol levels in tissues (liver, kidney, brain) ([3]; tissue): 3 nmol per gram

CC(C)(Sc1cc(C(C)(C)C)c(O)c(C(C)(C)C)c1)Sc1cc(C(C)(C)C)c(O)c(C(C)(C)C)c1 [probucal]
formation of 4-hydroxy-2-nonenal (4-HNE), of control values (LDL [1]): absolutely no effect
formation of malondialdehyde (MDA), of control values (LDL [1]): absolutely no effect

Oc1ccc(C=Cc2cc(O)cc(O)c2)cc1 [resveratrol]
reduction of formation of mouse skin papillomas (mouse skin papillomas): 60%

c1cc2c(cc1[C@H]1OC[C@H]3[C@@H]1CO[C@@H]3c1ccc3c(c1)OCO3)OCO2 [sesamin]
increase of peroxisomal palmitoyl Co-A oxidation rate [2]: 1.6 fold
LDL cholesterol, after [6]: 156.4
apolipoprotein B, after [6]: 168.5
changes in HDL cholesterol [6]: no changes
changes in triglycerides [6]: no changes
mean total cholesterol, after [6]: 248.3
LDL cholesterol, before [7]: 187.1
apolipoprotein B, before [7]: 188.8
mean total cholesterol, before [7]: 272.0
SREBP-1 m RNA level relative to rats fed a sesamin-free diet [4]: one-half

Oc1cc2c(cc1[C@H]1OC[C@H]3[C@@H]1CO[C@@H]3c1ccc3c(c1)OCO3)OCO2 [sesaminol]
lag time longer than tetrahydrocurcumin (LDL [5]): 567%
lag time of LDL oxidation (LDL [5]): 510 min
formation of 4-hydroxy-2-nonenal (4-HNE), of control values (LDL [1]): 17%
formation of malondialdehyde (MDA), of control values (LDL [1]): 13%
inhibited TBARS formation (LDL [1]; 0.1 micromolar concentration): 82.8%
protection against TBARS formation (LDL [1]; one micromolar concentration): 100%
IC50 (LDL [1]; read-out: IC50, lipid peroxidation of LDL): 36 ± 10 nM

Oc1ccc2c(c1)OCO2 [sesamol]
reduction of formation of mouse skin papillomas (mouse skin papillomas): 50%

vitamin E
lowers the risk of heart disease (heart disease): 41%
